Assay results: PMC11348465, “Pharmacochemical Study of Multitarget Amino Acids’ Hybrids: Design, Synthesis, In vitro, and In silico Studies” (Medicinal Chemistry (Shariqah (United Arab Emirates), 2024)

How the values were obtained:
[1] = molecular target: T1, soybean lipoxygenase (LOX-1) (Glycine max, UniProt P08170); conditions: % inhibition at 100 µM; cited from earlier work
T1 construct: purchased Sigma Chemical, Co. (St Louis, MO, USA)
T1 sequence (P08170 1-839): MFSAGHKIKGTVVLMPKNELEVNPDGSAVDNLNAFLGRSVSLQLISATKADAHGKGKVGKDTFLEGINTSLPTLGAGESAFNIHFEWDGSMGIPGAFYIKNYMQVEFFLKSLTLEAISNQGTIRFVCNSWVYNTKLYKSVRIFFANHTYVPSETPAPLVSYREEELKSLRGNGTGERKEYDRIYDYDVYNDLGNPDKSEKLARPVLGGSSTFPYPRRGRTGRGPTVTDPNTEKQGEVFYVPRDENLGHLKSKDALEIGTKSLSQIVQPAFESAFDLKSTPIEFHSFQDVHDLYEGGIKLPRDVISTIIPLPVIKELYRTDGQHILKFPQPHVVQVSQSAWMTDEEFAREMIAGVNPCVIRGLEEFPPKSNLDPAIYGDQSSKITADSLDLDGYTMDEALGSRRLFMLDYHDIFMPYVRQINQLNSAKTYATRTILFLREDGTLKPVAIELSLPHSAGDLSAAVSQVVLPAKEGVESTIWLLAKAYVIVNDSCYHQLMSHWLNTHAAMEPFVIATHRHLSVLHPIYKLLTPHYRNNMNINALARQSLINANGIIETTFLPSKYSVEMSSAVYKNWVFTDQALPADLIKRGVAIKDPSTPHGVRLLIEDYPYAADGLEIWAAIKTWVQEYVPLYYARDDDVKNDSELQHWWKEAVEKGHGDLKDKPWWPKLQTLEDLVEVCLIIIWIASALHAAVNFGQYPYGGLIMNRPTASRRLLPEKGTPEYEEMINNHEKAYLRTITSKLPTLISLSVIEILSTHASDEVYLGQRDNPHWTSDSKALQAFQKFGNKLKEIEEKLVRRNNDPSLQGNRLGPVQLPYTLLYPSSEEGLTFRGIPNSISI

[2] = cited from earlier work
[3] = molecular target: T2, ovine COX-2 (Ovis aries, UniProt P79208); assay: Cyclooxygenase-2 inhibition study; assay type: biochemical
T2 construct: purchased Cayman (USA)
T2 sequence (P79208 17-603): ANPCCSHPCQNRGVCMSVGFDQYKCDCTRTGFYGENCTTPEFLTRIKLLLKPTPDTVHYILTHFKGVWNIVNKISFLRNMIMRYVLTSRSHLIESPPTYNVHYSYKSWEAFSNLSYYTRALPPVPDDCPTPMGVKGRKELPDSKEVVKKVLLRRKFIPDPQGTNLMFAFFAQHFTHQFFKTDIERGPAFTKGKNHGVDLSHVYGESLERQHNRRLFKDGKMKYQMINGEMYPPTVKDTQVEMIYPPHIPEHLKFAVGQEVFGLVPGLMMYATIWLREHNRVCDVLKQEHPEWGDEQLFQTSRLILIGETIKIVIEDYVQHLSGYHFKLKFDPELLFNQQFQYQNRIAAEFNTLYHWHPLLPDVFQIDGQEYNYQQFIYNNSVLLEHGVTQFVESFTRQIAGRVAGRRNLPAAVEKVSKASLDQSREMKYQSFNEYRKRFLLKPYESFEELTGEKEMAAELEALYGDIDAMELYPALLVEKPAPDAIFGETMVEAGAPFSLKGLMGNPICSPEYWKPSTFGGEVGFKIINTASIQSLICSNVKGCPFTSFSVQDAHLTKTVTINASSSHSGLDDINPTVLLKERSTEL
Method: The in vitro study of cyclooxygenase (COX) activity was determined by using arachidonic acid (AA) as the substrate and N,N,N’,N’-tetramethylphenylenediamine (TMPD) as the co-substrate. […] The absorption due to the spontaneous oxidation of TMPD was subtracted from the initial rate of oxidation observed in the presence of AA. […] A blank determination was used first to serve as a negative control. Indomethacin was used as a reference COX-2 inhibitor (positive control).
The role of COX-2 in neurodegenerative diseases has been reported, and COX-2 inhibition is considered of high importance as a therapeutic tool. The designed derivatives were tested for their COX-2 inhibition activity on the ovine COX-2 enzyme. […] Indomethacin was used as a reference compound.

## O=C(O)/C=C/C=C/c1ccccc1 [Compound 23]
[1]
  LOX inhibition (%): 24%
[2]
  AAPH inhibition (%, at 100 µM): 30%
[3]
  inhibition at 100 µM: 9%
